Results on twelve molecules are retold here after patent US6569878B1, “Substituted 4-amino-thiazol-2-yl compounds as cyclin-dependent kinase inhibitors” (Agouron Pharmaceuticals Inc., priority 1997, dated 2003).

Test [1] addresses T1, complex of human CDK4 and cyclin D3 (Homo sapiens, UniProt P11802).
T1 construct: made in house; host or cells: insect cells, co-infected with baculovirus
As to the kind of experiment: Inhibition of CDK4/cyclin D retinoblastoma kinase activity (D-type cyclin is D3). Conditions: superscript a: D-type cyclin is D3; apparent Ki; read-out: Ki CDK 4/D. It is filed as biochemical. Summed up:
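Apparent Ki derived by fitting background-corrected activity to competitive (or, for tight binders, competitive tight-binding) equations with measured ATP Km. Rb phosphorylation by radiolabelled ATP was measured at 30°C, 20 min standard or 60 min at 5 nM complex for tight binders, via nitrocellulose capture and phosphorimager.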

Test [2] addresses T2, human CDK1 (cdc2) and cyclin B (Homo sapiens, UniProt P06493).
T2 construct: purchased New England Biolabs (Beverly Mass.)
As to the kind of experiment: Inhibition of CDK1(cdc2)/cyclin B histone H1 kinase activity. Conditions: read-out: Ki CDK 1/B. In kind it is biochemical. As for the experimental part:
Cyclin-dependent kinase activity was measured by quantifying the enzyme-catalyzed, time-dependent incorporation of radioactive phosphate from [^32P]ATP or [^33P]ATP into a protein substrate. Unless noted otherwise, assays were performed in 96-well plates in a total volume of 50 μL, in the presence of 10 mM HEPES (N-[2-hydroxyethyl]piperazine-N′-[2-ethanesulfonic acid]) (pH 7.4), 10 mM MgCl2, 25 μM adenosine triphosphate (ATP), 1 mg/mL ovalbumin, 5 μg/mL leupeptin, 1 mM dithiothreitol, 10 mM β-glycerophosphate, 0.1 mM sodium vanadate, 1 mM sodium fluoride, 2.5 mM ethylene glycol-bis(β-aminoethyl ether)-N,N,N′N′-tetraacetic acid (EGTA), 2% (v/v) dimethylsulfoxide, and 0.03-0.4 μCi [^32/33P]ATP per reaction. Reactions were initiated with enzyme, incubated at 30° C., and terminated after 20 minutes by the addition of ethylenediaminetetraacetic acid (EDTA) to 250 mM. The phosphorylated substrate was then captured on a nitrocellulose or phosphocellulose membrane using a 96-well filtration manifold, and unincorporated radioactivity was removed by repeated washing with 0.85% phosphoric acid. Radioactivity was quantified by exposing the dried membranes to a phosphorimager.
Apparent Ki values were measured by assaying enzyme activity in the presence of different inhibitor compound concentrations and subtracting the background radioactivity measured in the absence of enzyme. The kinetic parameters (kcat, Km for ATP) were measured for each enzyme under the usual assay conditions by determining the dependence of initial rates on ATP concentration. Inhibition data were fit to an equation for competitive inhibition using Kaleidagraph (Synergy Software), or were fit to an equation for competitive tight-binding inhibition using the software KineTic (BioKin, Ltd.).
The complex of human CDK1 (cdc2) and cyclin B was purchased from New England Biolabs (Beverly Mass.). Alternatively, a CDK1/glutathione-S-transferase-cyclin B1 complex was purified using glutathione affinity chromatography from insect cells that had been co-infected with the corresponding baculovirus expression vectors. The assay was executed as described above at 30° C. using 2.5 units of cdc2/cyclin B, 10 μg Histone H1 protein, and 0.1-0.3 μCi [^32/33P]ATP per assay. Phosphorylated histone substrate was captured by microfiltration on a phosphocellulose P81 membrane and quantified using a phosphorimager as described above. Ki values were measured using the described curve-fitting programs.

For the next test, the system named is U2-OS. As to the kind of experiment: Inhibition of cell growth, MTT assay, U2-OS. It is filed as cell-based. Conditions: for IC50 / IC90: Homo sapiens, U2OS. The method, boiled down: (§1)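 Cells rested 4 h after plating, then exposed to graded compound concentrations in 0.5% (v/v) DMSO for four to six days (cell-type dependent) at 37° C, 5% CO2. Viability was read by MTT (0.2 mg/mL final, 4 h at 37° C), with DMSO-solubilized formazan measured at 540 nm.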

In another test the test system is HCT116. As to the kind of experiment: Inhibition of cell growth, MTT assay, HCT116. Conditions: for IC50 / IC90: Homo sapiens, HCT-116. In kind it is cell-based, human. Summed up:
as §1
(Tetrazolium dyes change colour on reduction, which living cells bring about.)

The subject of another test is Saos-2. As to the kind of experiment: Inhibition of cell growth, MTT assay, Saos-2. In kind it is cell-based. The following applies: Homo sapiens; Saos-2, MTT assay. Summed up: as §1
The next test addresses T3, CDK2/cyclin A (Homo sapiens, UniProt P24941).
T3 construct: made in house; host or cells: CDK2: insect cells (baculovirus); cyclin A: E. coli, then limited proteolysis
As to the kind of experiment: Inhibition of CDK2/cyclin A retinoblastoma kinase activity. The following applies: read-out: Ki CDK 2/A. In kind it is biochemical. The method, boiled down:
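Baculovirus-expressed CDK2 with excess proteolyzed cyclin A (or purified complex), 150 nM or 5 nM, phosphorylating an Rb fragment with 25 μM [32/33P]ATP, pH 7.4, 30° C, 20 min. Filter-captured radioactivity by phosphorimager; apparent Ki from fits to competitive or tight-binding competitive inhibition using measured ATP Km.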

T1 sequence (P11802 whole entry): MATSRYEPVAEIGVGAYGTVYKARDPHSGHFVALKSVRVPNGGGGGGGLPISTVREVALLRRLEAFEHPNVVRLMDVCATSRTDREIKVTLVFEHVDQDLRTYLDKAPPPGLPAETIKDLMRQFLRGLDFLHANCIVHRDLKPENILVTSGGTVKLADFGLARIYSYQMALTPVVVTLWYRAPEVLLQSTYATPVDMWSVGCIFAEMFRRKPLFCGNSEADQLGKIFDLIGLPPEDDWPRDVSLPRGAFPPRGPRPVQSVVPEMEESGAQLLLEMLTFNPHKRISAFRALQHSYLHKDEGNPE
T1 sequence (P30281 whole entry partner): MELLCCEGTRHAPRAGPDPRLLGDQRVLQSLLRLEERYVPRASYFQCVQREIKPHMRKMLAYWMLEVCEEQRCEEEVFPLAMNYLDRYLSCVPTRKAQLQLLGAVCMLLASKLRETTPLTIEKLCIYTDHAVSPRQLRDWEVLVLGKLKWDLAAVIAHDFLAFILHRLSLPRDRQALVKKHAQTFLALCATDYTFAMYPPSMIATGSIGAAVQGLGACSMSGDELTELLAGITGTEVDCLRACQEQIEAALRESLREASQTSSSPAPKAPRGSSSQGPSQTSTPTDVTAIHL
T2 sequence (P06493 whole entry): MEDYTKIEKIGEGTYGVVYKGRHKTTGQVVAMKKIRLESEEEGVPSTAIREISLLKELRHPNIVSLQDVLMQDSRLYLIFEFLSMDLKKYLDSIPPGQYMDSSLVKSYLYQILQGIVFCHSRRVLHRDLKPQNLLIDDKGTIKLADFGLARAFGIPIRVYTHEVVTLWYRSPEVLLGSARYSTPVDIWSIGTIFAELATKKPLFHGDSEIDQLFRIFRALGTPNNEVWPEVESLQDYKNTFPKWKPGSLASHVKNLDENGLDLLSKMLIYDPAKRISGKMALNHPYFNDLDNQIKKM
T2 sequence (P14635 whole entry partner): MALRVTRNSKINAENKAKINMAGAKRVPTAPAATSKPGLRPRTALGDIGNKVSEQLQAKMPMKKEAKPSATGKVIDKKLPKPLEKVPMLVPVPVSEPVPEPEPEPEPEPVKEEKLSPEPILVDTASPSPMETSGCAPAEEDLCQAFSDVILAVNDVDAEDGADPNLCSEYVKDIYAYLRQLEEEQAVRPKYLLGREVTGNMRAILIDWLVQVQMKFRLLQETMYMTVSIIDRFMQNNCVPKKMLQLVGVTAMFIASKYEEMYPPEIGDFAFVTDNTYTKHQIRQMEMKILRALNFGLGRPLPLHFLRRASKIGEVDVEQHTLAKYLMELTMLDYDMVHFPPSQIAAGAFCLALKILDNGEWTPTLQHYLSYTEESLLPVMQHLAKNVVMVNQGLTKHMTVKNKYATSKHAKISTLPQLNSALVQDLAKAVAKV

In general, IC50 refers to the midpoint of a concentration-inhibition curve. What is called IC90 is the concentration needed for an effect of 90%. Regarding `Nc1nc(Nc2ccc3nc[nH]c3c2)sc1C(=O)c1c(Cl)cncc1Cl` [C(63), [4-Amino-2-(1H-benzoimidazol-5-yl-amino)-thiazol-5-yl]-(3,5-dichloro-pyridin-4-yl)-methanone], the Ki in test [1] was found to be 17 nM; in test [2] it was 133 nM; at CDK2/cyclin A it was 200 nM. Besides, the IC50 was 16 µM in the test on U2-OS, 12000 nM with HCT116 and 9000 nM with Saos-2. In addition, the IC90 in the test with U2-OS is above 25 µM; in the test with HCT116, 22000 nM; with Saos-2, 20 µM. Moreover, the “% inhibition of growth in parentheses after >25” value in the test on U2-OS (concentration not given) is recorded as 84%.
Consider `CN1CCN(c2ccc(Nc3nc(N)c(C(=O)c4c(Cl)cncc4Cl)s3)cc2)CC1` [C(70), {4-Amino-2-[4-(4-methyl-piperazin-1-yl)-phenylamino]-thiazol-5-yl}-(3,5-dichloro-pyridin-4-yl)-methanone], for which the Ki is 2.8 nM in test [1], 1370 nM in test [2] and 1120 nM on CDK2/cyclin A. Moreover, the results for the IC50 in the test on U2-OS, with HCT116 and in the test on Saos-2 were 5 µM, 2200 nM and 5800 nM, respectively. Also, the IC90 with U2-OS is 11 µM; in the test with HCT116, 5900 nM; in the test on Saos-2, 12 µM.
For `CC(=O)Nc1ccc(Cl)c(C(=O)c2sc(Nc3ccc(N4CCN(C)CC4)cc3)nc2N)c1Cl` [C(86), N-(3-{4-Amino-2-[4-(4-methyl-piperazin-1-yl)-phenylamino]-thiazole-5-carbonyl}-2,4-dichloro-phenyl)-acetamide], the Ki in test [1] is 15 nM; in test [2], 1310 nM; on CDK2/cyclin A, 1100 nM. For the same molecule, the IC50 in the test on U2-OS amounted to 14 µM; in the test on HCT116 it was 6500 nM; in the test on Saos-2, 12000 nM. For the same molecule, the IC90 stood at 22 µM in the test with U2-OS, 17000 nM in the test on HCT116 and 22 µM in the test on Saos-2.
As to `Cc1cc([N+](=O)[O-])sc1C(=O)c1sc(Nc2ccc(S(N)(=O)=O)cc2)nc1N` [C(95), 4-[4-Amino-5-(3-methyl-5-nitro-thiophene-2-carbonyl)-thiazol-2-ylamino]-benzenesulfonamide], the values for the Ki (in test [1]; in test [2]; at CDK2/cyclin A) were 25 nM, 75 nM and below 50 nM, respectively. Further, the IC50 with U2-OS turned out to be 3.9 µM; in the test on HCT116, 1500 nM; in the test with Saos-2 it was 1800 nM. Also, the IC90 was 5.8 µM in the test with U2-OS, 3000 nM in the test with HCT116 and 4.5 µM in the test on Saos-2.
As for `CN1CCN(c2ccc(Nc3nc(N)c(C(=O)c4c(Cl)cc(Br)c(N)c4Cl)s3)cc2)CC1` [C(96), (3-Amino-4-bromo-2,6-dichloro-phenyl)-{4-amino-2-[4-(4-methyl-piperazin-1-yl)-phenylamino]-thiazol-5-yl}-methanone], the figures for the Ki (in test [1]; in test [2]; on CDK2/cyclin A) were 1.5 nM, 231 nM and 324 nM, respectively. The IC50 is 8 µM in the test with U2-OS, 18000 nM in the test with HCT116 and 4200 nM with Saos-2. For the same molecule, the IC90 was 12 µM in the test with U2-OS, above 25000 nM in the test with HCT116 and 10 µM in the test with Saos-2. Besides, the “% inhibition of growth in parentheses after >25” value in the test with HCT116 (concentration not given) is “(82%)”.
As for `CC(=O)N1CCN(c2ccc(Nc3nc(N)c(C(=O)c4sccc4C)s3)cc2)CC1` [C(98), 2-[4-(1-Acetyl-piperazine-4-yl)-phenylamino]-4-amino-thiazol-5-yl-(3-methyl-thiophen-2-yl)-methanone], the figures for the Ki (in test [1]; in test [2]; at CDK2/cyclin A) were 27 nM, 720 nM and 565 nM, respectively. Further, the IC50 in the test with U2-OS worked out at 2.4 µM; in the test with HCT116, 1300 nM; in the test with Saos-2, 2700 nM. Further, the figures for the IC90 in the test on U2-OS, in the test on HCT116 and in the test with Saos-2 were 5.2 µM, 2900 nM and 5.3 µM, respectively.
Turning to `Nc1nc(Nc2ccc(S(N)(=O)=O)cc2)sc1C(=O)c1c(F)cccc1C(F)(F)F` [C(99), 4-[4-Amino-5-(2-fluoro-6-trifluoromethyl-benzoyl)-thiazol-2-ylamino]-benzenesulfonamide], the Ki in test [1] came out at 16.4 nM; in test [2] it was 40 nM; on CDK2/cyclin A, 39.5 nM. For the same molecule, the IC50 stood at 4 µM with U2-OS, 880 nM in the test on HCT116 and 1100 nM in the test on Saos-2. Besides, the IC90 was found to be 8 µM in the test with U2-OS, 2700 nM in the test on HCT116 and 2.9 µM with Saos-2.
For `NC(=O)c1ccc(Nc2nc(N)c(C(=O)c3c(F)cccc3F)s2)cc1` [C(102), 4-[4-Amino-5-(2,6-difluoro-benzoyl)-thiazol-2-ylamino]-benzamide], the Ki turned out to be 21 nM in test [1], 17 nM in test [2] and 49 nM on CDK2/cyclin A. In addition, the IC50 with U2-OS was determined as 3.1 µM; with HCT116 it was 1100 nM; with Saos-2 it was 880 nM. Also, the IC90 in the test with U2-OS was determined as 5.4 µM; with HCT116 it was 2400 nM; with Saos-2, 2.2 µM.
For the molecule `CNS(=O)(=O)c1ccc(Nc2nc(N)c(C(=O)c3sccc3C)s2)cc1` [C(114), 4-[4-Amino-5-(3-methyl-thiophene-2-carbonyl)-thiazol-2-ylamino]-N-methyl-benzenesulfonamide], the results for the Ki (in test [1]; in test [2]; on CDK2/cyclin A) were 21 nM, 28 nM and 8.5 nM, respectively. Further, the values for the IC50 in the test on U2-OS, in the test with HCT116 and in the test with Saos-2 were 3 µM, 1100 nM and 1300 nM, respectively. Further, the values for the IC90 with U2-OS, with HCT116 and in the test with Saos-2 were 5.2 µM, 2800 nM and 4.8 µM, respectively.
As for `CN1CCN(c2ccc(Nc3nc(N)c(C(=O)c4c(F)cccc4F)s3)cc2)CC1=O` [C(118), 4-{4-[4-Amino-5-(2,6-difluoro-benzoyl)-thiazol-2-ylamino]-phenyl}-1-methyl-piperazin-2-one], the Ki was 10.3 nM in test [1], 97 nM in test [2] and 191 nM on CDK2/cyclin A. For the same molecule, the IC50 was determined as 2.4 µM with U2-OS, 640 nM in the test on HCT116 and 940 nM in the test on Saos-2. Also, the IC90 with U2-OS amounted to 5 µM; in the test with HCT116, 1400 nM; with Saos-2 it was 1.5 µM.
As to `Nc1nc(Nc2ccc(N3CCSCC3)cc2)sc1C(=O)c1c(F)cccc1F` [C(119), [4-Amino-2-(4-thiomorpholin-4-yl-phenylamino)-thiazol-5-yl]-(2,6-difluoro-phenyl)-methanone], the Ki in test [1] came to 24 nM; in test [2], 247 nM; on CDK2/cyclin A, 86 nM. Besides, the IC50 in the test on U2-OS was 7.8 µM; with HCT116, 4000 nM; in the test on Saos-2 it was 7000 nM. Besides, the values for the IC90 in the test with U2-OS, in the test with HCT116 and in the test with Saos-2 were 12 µM, 7000 nM and 13 µM, respectively.
Turning to `Nc1nc(Nc2ccc(N3CCNC(=O)C3)cc2)sc1C(=O)c1c(F)cccc1F` [C(120), 4-{4-[4-Amino-5-(2,6-difluoro-benzoyl)-thiazol-2-ylamino]-phenyl}-piperazin-2-one], the Ki is 10.9 nM in test [1], 62 nM in test [2] and 80 nM on CDK2/cyclin A. The IC50 with U2-OS was determined as 5.7 µM; in the test with HCT116, 3500 nM; with Saos-2 it was 2600 nM. In addition, the IC90 in the test with U2-OS is 11 µM; in the test with HCT116, 6000 nM; in the test on Saos-2, 5.2 µM.
